# Results taken from PMC4578755, “Development of novel cellular histone-binding and chromatin-displacement assays for bromodomain drug discovery” (Epigenetics & Chromatin, 2015).
# Assays:
# [1] = system: histone H3K23Ac mark in HeLa cells; assay: H3K23 acetylation in HeLa cells (Western blot, anti-H3K23Ac immunostaining); type: cell-based; conditions: 2 h
# Procedure: Standard IF procedures were used. Briefly, cells were permeabilized (0.5 % Triton X-100 in PBS) for 15 min and incubated with blocking solution (DAKO #X0909) for 30 min. The following primary antibodies were used: goat anti-V5 (Bethyl #A190-119A) 1:200; mouse anti-FLAG (Sigma #F1804) 1:200; rabbit anti-BRD4 (Abcam #ab128874) 1:200; rabbit anti-TRIM24 (Proteintech #14208-1-AP) 1:400; rabbit anti-K3K23Ac (Cell Signaling #8848) 1:200, and mouse anti-histone H3 (Active Motif #39763) 1:4000. Alexa Fluor-conjugated secondary antibodies were from Invitrogen and Hoechst 33342 (Invitrogen, #H3570) was used for nuclei counterstaining (10 µg/ml). For each Alexa fluorochrome, images (4–10 fields per well; 20X magnifications) were acquired using the Operetta High-Content Screening System (PerkinElmer). Image analysis was performed in Harmony software (PerkinElmer) by selecting nuclei and cytoplasm in Hoechst channel. Gating for single cells of flat morphology was done based on nuclei area, roundness and intensity of Hoechst in the nucleus and in the cytoplasm. In every gated cell, the mean signal intensity value for each fluorochrome was calculated separately in nucleus and cytoplasm. The specific nuclear signal was estimated subtracting mean cytoplasmic value from nuclear; and average value was calculated using at least 1000 cells in each well.
# [2] = target: T1, GFP-tagged TRIM24 in HeLa cells (Homo sapiens, UniProt O15164); assay: GFP version of the in situ cell extraction assay; type: cell-based
# T1 construct: PB-TRIM24 PHD and bromodomain of TRIM24; expressed in transfected cells; host or cells: HeLa
# T1 sequence (O15164 810-1050 limits assumed): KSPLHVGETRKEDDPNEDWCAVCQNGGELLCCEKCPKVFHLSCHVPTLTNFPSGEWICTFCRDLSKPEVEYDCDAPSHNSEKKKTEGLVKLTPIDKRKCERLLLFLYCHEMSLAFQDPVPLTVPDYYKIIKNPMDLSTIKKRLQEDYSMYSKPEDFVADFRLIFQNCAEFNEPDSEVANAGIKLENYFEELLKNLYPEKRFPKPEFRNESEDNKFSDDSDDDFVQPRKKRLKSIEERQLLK
# Source text: In an HTS setting, we further simplified the in situ cell extraction procedure by replacing the indirect IF step (e.g., anti-FLAG) with cells engineered to express fluorescent moieties (e.g., GFP) fused to the protein target of interest (Additional file 1: Figure S5). In this format, the assay has minimal time and reagent costs associated with HTS operation, since no further liquid handling or processing steps are needed after detergent extraction and fixation. […] This is particularly noteworthy for two orthogonal assays that monitor either the displacement of TRIM24 from chromatin/nuclear structures or directly measure TRIM24/histone-H3 dissociation in cells.
# OV90 or HeLa cells (20,000 cells/100 µL) were seeded into 96-well plates (Corning Costar #3603) using RPMI or DMEM medium, respectively, supplemented with 10 % FBS and grown overnight. Test agents were serially diluted in DMSO (with or without SAHA) to generate 10X master compound plates. From here, 11 µL was transferred into each well containing 100 µL of growth media followed by shaking on a rotation table (15 min, 300 rpm at RT) and incubation at 37 °C for 2 h. Plates were washed once with PBS (150 µL/well) and then with cold, freshly prepared Cytoskeleton (CSK) Buffer (10 mM PIPES, 300 mM Sucrose, 100 mM NaCl, 3 mM MgCl2; pH = 6.8). Immediately thereafter, soluble, non-chromatin-bound proteins were extracted by addition of cold CSK Buffer supplemented with 0.5 % Triton X-100 (150 µL per well) for 10 min at 4 °C followed by 4 % paraformaldehyde fixation (10 min at RT) (Additional file 1: Table S3). […]
# number of fields and the number of cells in 96- and 384-well format that is enough for analysis.
# Figure S5. HTS-friendly GFP-version of the in situ cell extraction assay. (A) In situ cell extraction […]
# cells were treated with TRIM24i in 96-well plate using concentration range from 20 nM to 100
# µM. […] EC50 curve was calculated by Harmony software during the scan. […]
# Figure S6. […] Extraction buffer was added to the wells and each field of view was monitored every 3 minutes during 15 minutes. […]
"EC50 ([2]; HeLa cells expressing GFP-tagged TRIM24, 1 h incubation) [nM]",Displacement of TRIM24-GFP from chromatin ([2]; after extraction),Time to displacement of TRIM24-GFP from chromatin ([2]; data not shown) [min],SMILES,"H3K23 acetylation (anti-H3K23Ac immunostaining) ([1]; 3 µM, HeLa control and TRIM24-PB cells)","Cellular histone H3K23Ac mark ([1]; HDAC inhibitor treatment, 2 µM, Western blot)"
,,,"O=C(CCCCCCC(=O)Nc1ccccc1)NO [SAHA, Suberoylanilide Hydroxamic Acid]",maximal H3K23 acetylation,hyperacetylated
2300,full displacement,≤ 1,"Cc1nc(S(=O)(=O)Nc2cc3c(cc2Oc2cccc(OCC(C)C)c2)n(C)c(=O)n3C)cn1C [IACS-6558, N-{1,3-dimethyl-6-[3-(2-methylpropoxy)phenoxy]-2-oxo-2,3-dihydro-1H-1,3-benzodiazol-5-yl}-1,2-dimethyl-1H-imidazole-4-sulfonamide]",,
